Experimental data reported in PMC9151520 (Archives of Toxicology, 2022).
Several values for one entry are separate records, joined by “and”; a condition that tells them apart may be missing. Equal values may be shown once. Read-outs that look alike come from different tables or passages of the source.

Key:
in vitro = conditions: male, Sprague Dawley, rat, microsomes, pH 7.4
[1] = test system: p53 signaling (p53RE-bla HCT-116 cells); assay: cells; assay type: cell-based
[2] = test system: p53 signaling (p53RE-bla HCT-116 cells); assay: cells; assay type: cell-based; set-up: efficacy: unit not given here; conditions: for EC50: HCT-116
[3] = test system: p53 signaling (p53RE-bla HCT-116 cells); assay: cells; assay type: cell-based; remark: listed apart in the source
[4] = test system: p53 signaling (p53RE-bla HCT-116 cells); assay: cells; conditions: Homo sapiens
[5] = test system: p53 signaling (p53RE-bla HCT-116 cells)
[6] = rat
[7] = test system: p53 signaling (p53RE-bla HCT-116 cells); remark: listed apart in the source
[8] = test system: p53 signaling (p53RE-bla HCT-116 cells); assay: cells; conditions: Homo sapiens; for Emax: HCT-116, read-out: efficacy
[9] = Homo sapiens, HCT-116, read-out: efficacy
[10] = HCT-116, read-out: p53 activation EC50, HLM
[11] = read-out: p53 activation EC50, RLM

Structure (SMILES) | half-life (in vitro) [min] | EC50 ([1]; Homo sapiens, HCT-116, 0.5 h) [µM] | EC50 ([2]; Homo sapiens) [µM] | Viability EC50, HLM (p53RE-bla HCT-116 cells) | Viability EC50, No MS (p53RE-bla HCT-116 cells) | Viability EC50, RLM (p53RE-bla HCT-116 cells) | Viability Efficacy, HLM (p53RE-bla HCT-116 cells) | Viability Efficacy, No MS (p53RE-bla HCT-116 cells) | Viability Efficacy, RLM (p53RE-bla HCT-116 cells) | p53 activation EC50, No MS [3] | p53 activation Efficacy, No MS [3] | p53 activation EC50, HLM [5] | Depletion after 16 h of incubation with cells [6] [%] | EC50 ([8]; HCT-116) [µM] | further results
CCOP(=O)(SC(C)CC)N1CCSC1=O (centres unmarked) [Fosthiazate] | 15.2 ± 1.93 |  |  |  |  |  |  |  |  |  |  |  |  |  | 
OCCN(CCO)c1nc(N2CCCCC2)c2nc(N(CCO)CCO)nc(N3CCCCC3)c2n1 [Dipyridamole, reference compound] | 7.32 ± 0.59 | 4.36 | 5.28 |  |  |  |  |  |  |  |  |  |  |  | Emax [1, 9]: 174%
CCOP(=S)(OCC)SCSCC [Phorate] | 104 ± 22.4 |  |  |  |  |  |  |  |  |  |  |  |  |  | 
CCOP(=O)(NC(C)C)Oc1ccc(SC)c(C)c1 (centres unmarked) [Fenamiphos] |  | 0.37 | 1.34 | inactive | inactive | inactive | inactive | inactive | inactive | inactive | inactive | inactive | 99.41 ± 0.07 | 1.5 | efficacy [1]: 0.37 ± 0.15 ( 33.54 ± 3.04 ) %; EC50 [4, 10]: 1.49 µM; EC50 [7, 11]: 0.958 µM; efficacy [2]: 1.34 ± 0.33 ( 75.12 ± 11.54 ) %; EC50 ([8]; HCT-116, read-out: p53 activation EC50, RLM): 1.55 µM
CCOP(=S)(OCC)Oc1ccc([N+](=O)[O-])cc1 [Parathion] |  |  | 1.45 | inactive | inactive | inactive | inactive | inactive | inactive | inactive | inactive | inactive | 98.86 ± 0.34 | 1.11 | EC50 [1]: Inactive; EC50 [4, 10]: 1.2 µM; Emax [2, 9]: 35.6%; Emax [8]: 36.3%
CCOP(=S)(OCC)Oc1cc(C)nc(N(CC)CC)n1 [Pirimiphos-ethyl] |  |  |  | inactive | inactive | inactive | inactive | inactive | inactive | inactive | inactive | inactive | 95.16 ± 0.46 |  | EC50 ([5]; read-out: p53 activation EC50, HLM): 3.88 µM; EC50 [7]: 2.07 µM; EC50 [7, 11]: 1.91 µM and 3.44 µM
COP(=S)(OC)SCn1nnc2ccccc2c1=O [Azinphos-methyl] |  | 6.6 | 7.29 |  |  |  |  |  |  |  |  |  | 94.04 ± 0.16 | 11.6 | Viability EC50 (p53RE-bla HCT-116 cells): inactive; Viability efficacy (p53RE-bla HCT-116 cells): inactive; p53 activation EC50 [3]: inactive; p53 activation efficacy [3]: inactive; efficacy [1]: 6.6 ± 0.91 ( 57.05 ± 12.27 ) %; EC50 ([4]; HCT-116, read-out: p53 activation EC50): 14.9 µM; p53 activation EC50 [5]: inactive; p53 activation efficacy [7]: 77.2775 and 58.65; efficacy [2]: 7.29 ± 2.15 ( 104.64 ± 29.38 ) %
O=C1CC2(CCCC2)CC(=O)N1CCCCN1CCN(c2ncccn2)CC1 [buspirone, reference compound] | 7.2 ± 2.3 |  |  |  |  |  |  |  |  |  |  |  |  |  | 
COP(=S)(OC)Oc1cc(Cl)c(I)cc1Cl [Iodenphos] |  | 24.2 | 37 |  |  |  |  |  |  |  |  |  | 99.99 ± 0 | 32.2 | Viability EC50 (p53RE-bla HCT-116 cells): inactive; Viability efficacy (p53RE-bla HCT-116 cells): inactive; p53 activation EC50 [3]: inactive; p53 activation efficacy [3]: inactive; Emax ([4]; HCT-116, read-out: p53 activation efficacy): 54.2%; p53 activation EC50 [5]: inactive; p53 activation efficacy [7]: 81.587 and 107.715; EC50 ([7]; read-out: p53 activation EC50): 26.6 µM; Emax [8]: 84.9%
